Assay results reported in patent US9944602B2, “Piperidinone herbicides” (E. I. DU PONT DE NEMOURS AND COMPANY, priority 2014, dated 2018).

How the values were obtained:
Type in all cases: in vivo
[1] = system: galium (catchweed bedstraw, Galium aparine); assay: Test A postemergence galium; conditions: 0 to 100 scale, 0 is no effect, 100 is complete control
Summary of the method: (§1)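 Visual injury rating, 0–100 scale (0 = no effect, 100 = complete control), versus untreated controls ~10 d after treatment in greenhouse. Pre: directed soil spray onto seeded loam/sand. Post: foliar spray at 2–10 cm, 1–2 leaf stage. Solvent-surfactant formulation.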

[2] = system: ragweed (common ragweed, Ambrosia elatior); assay: Test A postemergence ragweed; conditions: 0 to 100 scale, 0 is no effect, 100 is complete control
Summary of the method: as §1

[3] = system: sedge, umbrella (small-flower umbrella sedge, Cyperus difformis); assay: Test B flooded paddy test sedge, umbrella; conditions: Table B, Flood, 500 g ai/ha, scale 0 to 100
Summary of the method: (§2)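 Once seedlings reached two leaves, pots were flooded 3 cm deep and treated via the paddy water, which remained at that level. Evaluation was visual, against controls, after 13 to 15 d under greenhouse conditions.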

[4] = system: barnyardgrass (Echinochloa crus-galli); assay: Test C flooded paddy test barnyardgrass; conditions: Table C, Flood, scale 0 to 100
Text: (§3) Plant species in the flooded paddy test consisted of rice (Oryza sativa), sedge, umbrella (small-flower umbrella sedge, Cyperus difformis), ducksalad (Heteranthera limosa), and barnyardgrass (Echinochloa crus-galli) grown to the 2-leaf stage for testing. At time of treatment, test pots were flooded to 3 cm above the soil surface, treated by application of test compounds directly to the paddy water, and then maintained at that water depth for the duration of the test. Treated plants and controls were maintained in a greenhouse for 13 to 15 d, after which time all species were compared to controls and visually evaluated. Plant response ratings, summarized in Table C, are based on a scale of 0 to 100 where 0 is no effect and 100 is complete control. A dash (-) response means no test result.

[5] = system: ducksalad (Heteranthera limosa); assay: Test C flooded paddy test ducksalad; conditions: Table C, Flood, scale 0 to 100
Text: as §3

[6] = system: pigweed (Amaranthus retroflexus); assay: Test A preemergence pigweed; conditions: 0 to 100 scale, 0 no effect, 100 complete control
Summary of the method: as §1

[7] = system: barnyardgrass (Echinochloa crus-galli); assay: Test A postemergence barnyardgrass; conditions: 0 to 100 scale, 0 is no effect, 100 is complete control
Summary of the method: as §1

[8] = system: ryegrass, Italian (Italian ryegrass, Lolium multiflorum); assay: Test A preemergence ryegrass, Italian; conditions: 0 to 100 scale, 0 no effect, 100 complete control
Summary of the method: as §1

kochia (Kochia scoparia) [9] = assay: Test A preemergence kochia; conditions: 0 to 100 scale, 0 no effect, 100 complete control
Summary of the method: as §1

[10] = system: barnyardgrass (Echinochloa crus-galli); assay: Test A preemergence barnyardgrass; conditions: 0 to 100 scale, 0 no effect, 100 complete control
Summary of the method: as §1

[11] = system: blackgrass (Alopecurus myosuroides); assay: Test A postemergence blackgrass; conditions: 0 to 100 scale, 0 is no effect, 100 is complete control
Summary of the method: as §1

[12] = system: wheat (Triticum aestivum); assay: Test A postemergence wheat; conditions: 0 to 100 scale, 0 is no effect, 100 is complete control
Summary of the method: as §1

rice (Oryza sativa) [13] = assay: Test B flooded paddy test rice; conditions: Table B, Flood, 500 g ai/ha, scale 0 to 100
Summary of the method: as §2

corn (Zea mays) = assay: Test A postemergence corn; conditions: 0 to 100 scale, 0 is no effect, 100 is complete control
Summary of the method: as §1

[14] = system: foxtail, giant (giant foxtail, Setaria faberii); assay: Test A preemergence foxtail, giant; conditions: 0 to 100 scale, 0 no effect, 100 complete control
Summary of the method: as §1

kochia (Kochia scoparia) [15] = assay: Test A postemergence kochia; conditions: 0 to 100 scale, 0 is no effect, 100 is complete control
Summary of the method: as §1

[16] = system: foxtail, giant (giant foxtail, Setaria faberii); assay: Test A postemergence foxtail, giant; conditions: 0 to 100 scale, 0 is no effect, 100 is complete control
Summary of the method: as §1

[17] = system: ryegrass, Italian (Italian ryegrass, Lolium multiflorum); assay: Test A postemergence ryegrass, Italian; conditions: 0 to 100 scale, 0 is no effect, 100 is complete control
Summary of the method: as §1

[18] = system: ducksalad (Heteranthera limosa); assay: Test B flooded paddy test ducksalad; conditions: Table B, Flood, 500 g ai/ha, scale 0 to 100
Summary of the method: as §2

[19] = system: sedge, umbrella (small-flower umbrella sedge, Cyperus difformis); assay: Test C flooded paddy test sedge, umbrella; conditions: Table C, Flood, scale 0 to 100
Text: as §3

rice (Oryza sativa) [20] = assay: Test C flooded paddy test rice; conditions: Table C, Flood, scale 0 to 100
Text: as §3

[21] = system: ragweed (common ragweed, Ambrosia elatior); assay: Test A preemergence ragweed; conditions: 0 to 100 scale, 0 no effect, 100 complete control
Summary of the method: as §1

[22] = system: barnyardgrass (Echinochloa crus-galli); assay: Test B flooded paddy test barnyardgrass; conditions: Table B, Flood, 500 g ai/ha, scale 0 to 100
Summary of the method: as §2

[23] = system: pigweed (Amaranthus retroflexus); assay: Test A postemergence pigweed; conditions: 0 to 100 scale, 0 is no effect, 100 is complete control
Summary of the method: as §1

O=C1NCCC(c2cccc(C(F)(F)F)c2)C1C(=O)Nc1cccc(Cl)c1F (racemic) [Compound 16]
Plant response rating, Galium ([1]; 125 g ai/ha): 20
Plant response rating, Galium ([1]; 500 g ai/ha): 20
Plant response rating, Ragweed ([2]; 125 g ai/ha): 0
Plant response rating, Ragweed ([2]; 500 g ai/ha): 0
Plant response rating [3]: 0
Plant response rating ([4]; 31 g ai/ha): 0
Plant response rating ([4]; 62 g ai/ha): 0
Plant response rating ([4]; 125 g ai/ha): 0
Plant response rating ([4]; 250 g ai/ha): 0
Plant response rating ([5]; 31 g ai/ha): 0
Plant response rating ([5]; 62 g ai/ha): 0
Plant response rating ([5]; 125 g ai/ha): 0
Plant response rating ([5]; 250 g ai/ha): 0
Pigweed plant response rating ([6]; 125 g ai/ha): 0
Pigweed plant response rating ([6]; 500 g ai/ha): 0
Plant response rating, Barnyardgrass ([7]; 125 g ai/ha): 70
Plant response rating, Barnyardgrass ([7]; 500 g ai/ha): 90
Ryegrass, Italian plant response rating ([8]; 125 g ai/ha): 20
Ryegrass, Italian plant response rating ([8]; 500 g ai/ha): 40
Kochia plant response rating (kochia (Kochia scoparia) [9]; 125 g ai/ha): 30
Kochia plant response rating (kochia (Kochia scoparia) [9]; 500 g ai/ha): 50
Barnyardgrass plant response rating ([10]; 125 g ai/ha): 70
Barnyardgrass plant response rating ([10]; 500 g ai/ha): 90
Plant response rating, Blackgrass ([11]; 125 g ai/ha): 40
Plant response rating, Blackgrass ([11]; 500 g ai/ha): 60
Plant response rating, Wheat ([12]; 125 g ai/ha): 20
Plant response rating, Wheat ([12]; 500 g ai/ha): 30
Plant response rating (rice (Oryza sativa) [13]): 0
Plant response rating, Corn (corn (Zea mays); 125 g ai/ha): 0
Plant response rating, Corn (corn (Zea mays); 500 g ai/ha): 30
Foxtail, Giant plant response rating ([14]; 125 g ai/ha): 90
Foxtail, Giant plant response rating ([14]; 500 g ai/ha): 90
Plant response rating, Kochia (kochia (Kochia scoparia) [15]; 125 g ai/ha): 0
Plant response rating, Kochia (kochia (Kochia scoparia) [15]; 500 g ai/ha): 20
Plant response rating, Foxtail, Giant ([16]; 125 g ai/ha): 80
Plant response rating, Foxtail, Giant ([16]; 500 g ai/ha): 80
Plant response rating, Ryegrass, Italian ([17]; 125 g ai/ha): 0
Plant response rating, Ryegrass, Italian ([17]; 500 g ai/ha): 20
Plant response rating [18]: 0
Plant response rating ([19]; 31 g ai/ha): 0
Plant response rating ([19]; 62 g ai/ha): 0
Plant response rating ([19]; 125 g ai/ha): 0
Plant response rating ([19]; 250 g ai/ha): 0
Plant response rating (rice (Oryza sativa) [20]; 31 g ai/ha): 0
Plant response rating (rice (Oryza sativa) [20]; 62 g ai/ha): 0
Plant response rating (rice (Oryza sativa) [20]; 125 g ai/ha): 0
Plant response rating (rice (Oryza sativa) [20]; 250 g ai/ha): 0
Ragweed plant response rating ([21]; 125 g ai/ha): 0
Ragweed plant response rating ([21]; 500 g ai/ha): 0
Plant response rating [22]: 0
Plant response rating, Pigweed ([23]; 125 g ai/ha): 0
Plant response rating, Pigweed ([23]; 500 g ai/ha): 0

O=C1NCCC(c2cccc(C(F)(F)F)c2)C1C(=O)Nc1cccc(F)c1Cl (racemic) [Compound 19]
Plant response rating, Galium ([1]; 125 g ai/ha): 20
Plant response rating, Galium ([1]; 500 g ai/ha): 20
Plant response rating, Ragweed ([2]; 125 g ai/ha): 0
Plant response rating, Ragweed ([2]; 500 g ai/ha): 0
Plant response rating [3]: 0
Plant response rating ([4]; 31 g ai/ha): 0
Plant response rating ([4]; 62 g ai/ha): 0
Plant response rating ([4]; 125 g ai/ha): 0
Plant response rating ([4]; 250 g ai/ha): 0
Plant response rating ([5]; 31 g ai/ha): 0
Plant response rating ([5]; 62 g ai/ha): 0
Plant response rating ([5]; 125 g ai/ha): 0
Plant response rating ([5]; 250 g ai/ha): 0
Pigweed plant response rating ([6]; 125 g ai/ha): 0
Pigweed plant response rating ([6]; 500 g ai/ha): 0
Plant response rating, Barnyardgrass ([7]; 125 g ai/ha): 60
Plant response rating, Barnyardgrass ([7]; 500 g ai/ha): 80
Ryegrass, Italian plant response rating ([8]; 125 g ai/ha): 20
Ryegrass, Italian plant response rating ([8]; 500 g ai/ha): 30
Kochia plant response rating (kochia (Kochia scoparia) [9]; 125 g ai/ha): 0
Kochia plant response rating (kochia (Kochia scoparia) [9]; 500 g ai/ha): 20
Barnyardgrass plant response rating ([10]; 125 g ai/ha): 70
Barnyardgrass plant response rating ([10]; 500 g ai/ha): 80
Plant response rating, Blackgrass ([11]; 125 g ai/ha): 40
Plant response rating, Blackgrass ([11]; 500 g ai/ha): 50
Plant response rating, Wheat ([12]; 125 g ai/ha): 0
Plant response rating, Wheat ([12]; 500 g ai/ha): 30
Plant response rating (rice (Oryza sativa) [13]): 0
Plant response rating, Corn (corn (Zea mays); 125 g ai/ha): 0
Plant response rating, Corn (corn (Zea mays); 500 g ai/ha): 50
Foxtail, Giant plant response rating ([14]; 125 g ai/ha): 80
Foxtail, Giant plant response rating ([14]; 500 g ai/ha): 90
Plant response rating, Kochia (kochia (Kochia scoparia) [15]; 125 g ai/ha): 0
Plant response rating, Kochia (kochia (Kochia scoparia) [15]; 500 g ai/ha): 20
Plant response rating, Foxtail, Giant ([16]; 125 g ai/ha): 70
Plant response rating, Foxtail, Giant ([16]; 500 g ai/ha): 80
Plant response rating, Ryegrass, Italian ([17]; 125 g ai/ha): 0
Plant response rating, Ryegrass, Italian ([17]; 500 g ai/ha): 20
Plant response rating [18]: 60
Plant response rating ([19]; 31 g ai/ha): 0
Plant response rating ([19]; 62 g ai/ha): 0
Plant response rating ([19]; 125 g ai/ha): 0
Plant response rating ([19]; 250 g ai/ha): 0
Plant response rating (rice (Oryza sativa) [20]; 31 g ai/ha): 0
Plant response rating (rice (Oryza sativa) [20]; 62 g ai/ha): 0
Plant response rating (rice (Oryza sativa) [20]; 125 g ai/ha): 0
Plant response rating (rice (Oryza sativa) [20]; 250 g ai/ha): 0
Ragweed plant response rating ([21]; 125 g ai/ha): 0
Ragweed plant response rating ([21]; 500 g ai/ha): 20
Plant response rating [22]: 60
Plant response rating, Pigweed ([23]; 125 g ai/ha): 0
Plant response rating, Pigweed ([23]; 500 g ai/ha): 0
